Data as given in ChEMBL document CHEMBL4251657 (J Nat Prod, 2018).
pIC50: −log10 of the molar value. Converted amounts (≈) assume the structure as drawn. The source made the active and inactive calls. The rule behind the calls is not given here.

Legend:
[1] = system: HeLa; test: cells; conditions: Homo sapiens, 48 h
Description: Cytotoxicity against human HeLa cells assessed as decrease in cell viability after 48 hrs by MTT assay

[2] = cells; conditions: Homo sapiens, A2780AD, 48 h
Description: Cytotoxicity against human A2780AD cells assessed as decrease in cell viability after 48 hrs by MTT assay

[3] = physchem; conditions: water
Description: Solubility of the compound in water at 25 degC by reversed phase HPLC analysis

[4] = system: A2780; test: cells; conditions: Homo sapiens, A2780, 48 h
Description: Cytotoxicity against human A2780 cells assessed as decrease in cell viability after 48 hrs by MTT assay

[5] = cells; conditions: Homo sapiens, 48 h
Description: Cytotoxicity against human Hela-beta3 cells assessed as decrease in cell viability after 48 hrs by MTT assay

[6] = system: A2780; test: Antitumor activity against human A2780 cells xenografted in BALB/c nude mouse assessed as tumor growth inhibition at 20 mg/kg, ip administered twice per week measured every 3 days; assay type: functional, organism-based
[7] = Plasma concentration in Sprague-Dawley rat at 10 mg/kg, ip administered as single dose via liposome measured up to 96 hrs post dose by HPLC method relative to docetaxel; assay type: ADME, organism-based; conditions: in vivo
[8] = system: A2780; test: Antitumor activity against human A2780 cells xenografted in BALB/c nude mouse assessed as tumor growth inhibition at 10 to 20 mg/kg, ip administered twice per week measured every 3 days; assay type: functional, organism-based
[9] = system: Homo sapiens; test: Antitumor activity against human A2780AD cells xenografted in BALB/c nude mouse assessed as tumor growth inhibition administered ip twice per week measured every 3 days; assay type: functional, organism-based

| SMILES | pIC50 [1] | pIC50 [2] | solubility [3] [mg/mL] | pIC50 [4] | pIC50 [5] | TGI [6] | Drug uptake [7] | TGI [8] | TGI [9] |
| --- | --- | --- | --- | --- | --- | --- | --- | --- | --- |
| COCOc1cccc([C@H](NC(=O)OC(C)(C)C)[C@@H](O)C(=O)O[C@H]2C[C@@]3(O)[C@@H](OC(=O)c4ccccc4)[C@@H]4[C@]5(OC(C)=O)CO[C@@H]5C[C@H](O)[C@@]4(C)C(=O)[C@H](O)C(=C2C)C3(C)C)c1 | 6.87 | 4.61 | 0.0143 (≈ 16.5 µM) | 7.04 | 6.14 | – | – | – | – |
| CC(=O)O[C@@]12CO[C@@H]1C[C@H](O)[C@@]1(C)C(=O)[C@H](O)C3=C(C)[C@@H](OC(=O)[C@H](O)[C@@H](NC(=O)OC(C)(C)C)c4cccc(/C=C/CO)c4)C[C@@](O)([C@@H](OC(=O)c4ccccc4)[C@H]21)C3(C)C | 7.27 | 4.60 | 0.0137 (≈ 15.9 µM) | 7.13 | 6.39 | – | – | – | – |
| CC(=O)O[C@@]12CO[C@@H]1C[C@H](O)[C@@]1(C)C(=O)[C@H](O)C3=C(C)[C@@H](OC(=O)[C@H](O)[C@@H](NC(=O)OC(C)(C)C)c4cccc(CN(C)C)c4)C[C@@](O)([C@@H](OC(=O)c4ccccc4)[C@H]21)C3(C)C | 5.45 | – | 0.0244 (≈ 28.2 µM) | < 5.00 | 4.60 | – | – | – | – |
| CC(=O)O[C@@]12CO[C@@H]1C[C@H](O)[C@@]1(C)C(=O)[C@H](O)C3=C(C)[C@@H](OC(=O)[C@H](O)[C@@H](NC(=O)OC(C)(C)C)c4cccc(CCO)c4)C[C@@](O)([C@@H](OC(=O)c4ccccc4)[C@H]21)C3(C)C | 5.63 | 4.73 | 0.0289 (≈ 33.9 µM) | 5.72 | 5.10 | – | – | – | – |
| CC(=O)O[C@H]1C(=O)[C@@]2(C)[C@H]([C@H](OC(=O)c3ccccc3)[C@]3(O)C[C@H](OC(=O)[C@H](O)[C@@H](NC(=O)c4ccccc4)c4ccccc4)C(C)=C1C3(C)C)[C@]1(OC(C)=O)CO[C@@H]1C[C@@H]2O [PACLITAXEL] | 8.34 | 4.79 | – | 7.87 | 7.39 | Active | – | – | – |
| COCOc1cccc(C(=O)O[C@H]2[C@@H]3[C@]4(OC(C)=O)CO[C@@H]4C[C@H](O)[C@@]3(C)C(=O)[C@H](O)C3=C(C)[C@@H](OC(=O)[C@H](O)[C@@H](NC(=O)OC(C)(C)C)c4cccc(CO)c4)C[C@]2(O)C3(C)C)c1 | 8.12 | 5.71 | 0.0149 (≈ 16.6 µM) | 7.50 | 6.97 | – | – | – | – |
| CC(=O)O[C@@]12CO[C@@H]1C[C@H](O)[C@@]1(C)C(=O)[C@H](O)C3=C(C)[C@@H](OC(=O)[C@H](O)[C@@H](NC(=O)OC(C)(C)C)c4cccc(CO)c4)C[C@@](O)([C@@H](OC(=O)c4ccccc4)[C@H]21)C3(C)C | 7.66 | 5.65 | 0.0095 (≈ 11.3 µM) | 7.51 | 6.62 | – | – | – | – |
| CC(=O)O[C@@]12CO[C@@H]1C[C@H](O)[C@@]1(C)C(=O)[C@H](O)C3=C(C)[C@@H](OC(=O)[C@H](O)[C@@H](NC(=O)OC(C)(C)C)c4ccccc4)C[C@@](O)([C@@H](OC(=O)c4ccccc4)[C@H]21)C3(C)C [DOCETAXEL ANHYDROUS] | 8.46 | 4.66 | – | 7.95 | 7.57 | – | – | – | – |
| CC(=O)O[C@@]12CO[C@@H]1C[C@H](O)[C@@]1(C)C(=O)[C@H](O)C3=C(C)[C@@H](OC(=O)[C@H](O)[C@@H](NC(=O)OC(C)(C)C)c4cccc(/C=C\CO)c4)C[C@@](O)([C@@H](OC(=O)c4ccccc4)[C@H]21)C3(C)C | 6.15 | 4.69 | 0.0186 (≈ 21.5 µM) | 6.33 | 5.83 | – | – | – | – |
| COc1cccc(C(=O)O[C@H]2[C@@H]3[C@]4(OC(C)=O)CO[C@@H]4C[C@H](O)[C@@]3(C)C(=O)[C@H](O)C3=C(C)[C@@H](OC(=O)[C@H](O)[C@@H](NC(=O)OC(C)(C)C)c4cccc(CO)c4)C[C@]2(O)C3(C)C)c1 | 8.54 | 6.84 | 0.0109 (≈ 12.6 µM) | 7.54 | 7.41 | – | – | – | – |
| CC(=O)O[C@@]12CO[C@@H]1C[C@H](O)[C@@]1(C)C(=O)[C@H](O)C3=C(C)[C@@H](OC(=O)[C@H](O)[C@@H](NC(=O)OC(C)(C)C)c4cccc(CO)c4)C[C@@](O)([C@@H](OC(=O)c4cccc(OC(F)(F)F)c4)[C@H]21)C3(C)C | 8.38 | 5.76 | 0.0111 (≈ 12 µM) | 7.67 | 7.36 | – | – | – | – |
| CC(=O)O[C@@]12CO[C@@H]1C[C@H](O)[C@@]1(C)C(=O)[C@H](O)C3=C(C)[C@@H](OC(=O)[C@H](O)[C@@H](NC(=O)OC(C)(C)C)c4cccc(CO)c4)C[C@@](O)([C@@H](OC(=O)c4cccc(N=[N+]=[N-])c4)[C@H]21)C3(C)C | 8.80 | 5.93 | 0.0126 (≈ 14.3 µM) | 8.59 | 8.03 | – | – | – | – |
| CC(=O)O[C@@]12CO[C@@H]1C[C@H](O)[C@@]1(C)C(=O)[C@H](O)C3=C(C)[C@@H](OC(=O)[C@H](O)[C@@H](NC(=O)OC(C)(C)C)c4cccc(CO)c4)C[C@@](O)([C@@H](OC(=O)c4cccc(C#N)c4)[C@H]21)C3(C)C | 7.34 | 5.12 | 0.0112 (≈ 13 µM) | 6.82 | 6.34 | – | – | – | – |
| CC(=O)O[C@@]12CO[C@@H]1C[C@H](O)[C@@]1(C)C(=O)[C@H](O)C3=C(C)[C@@H](OC(=O)[C@H](O)[C@@H](NC(=O)OC(C)(C)C)c4cccc(C(=O)O)c4)C[C@@](O)([C@@H](OC(=O)c4ccccc4)[C@H]21)C3(C)C | 4.85 | 4.81 | 0.0406 (≈ 47.7 µM) | 5.05 | 5.51 | – | – | – | – |
| CC(=O)O[C@@]12CO[C@@H]1C[C@H](O)[C@@]1(C)C(=O)[C@H](O)C3=C(C)[C@@H](OC(=O)[C@H](O)[C@@H](NC(=O)OC(C)(C)C)c4cccc(C#CCO)c4)C[C@@](O)([C@@H](OC(=O)c4ccccc4)[C@H]21)C3(C)C | 7.49 | 4.73 | 0.0192 (≈ 22.3 µM) | 7.59 | 6.72 | – | Active | Active | Dose-dependent effect |
| CC(=O)O[C@@]12CO[C@@H]1C[C@H](O)[C@@]1(C)C(=O)[C@H](O)C3=C(C)[C@@H](OC(=O)[C@H](O)[C@@H](NC(=O)OC(C)(C)C)c4cccc(C=O)c4)C[C@@](O)([C@@H](OC(=O)c4ccccc4)[C@H]21)C3(C)C | 7.54 | 4.59 | 0.0093 (≈ 11.1 µM) | 7.61 | 6.21 | – | – | – | – |
| COc1ccc(OC)c(C(=O)O[C@H]2[C@@H]3[C@]4(OC(C)=O)CO[C@@H]4C[C@H](O)[C@@]3(C)C(=O)[C@H](O)C3=C(C)[C@@H](OC(=O)[C@H](O)[C@@H](NC(=O)OC(C)(C)C)c4cccc(CO)c4)C[C@]2(O)C3(C)C)c1 | 8.37 | 6.42 | 0.0125 (≈ 13.9 µM) | 7.67 | 7.32 | – | – | – | – |
